Laboratory results taken from article PMC5410297, “Sepia ink oligopeptide induces apoptosis and growth inhibition in human lung cancer cells” (Oncotarget, 2017).

Assays:
[1] = test system: A549 and H1299 cells; assay: Anti-proliferative effect, MTT and CCK-8 assays; format: cell-based, human; settings: A549 and H1299, MTT and CCK-8, 5 μM, n = 3
Method: Cell proliferation and apoptosis are crucial markers of cancer metastasis and invasive properties. To explore whether the stable SIO has much better effect on inhibiting the proliferation of A549 and H1299 cells, MTT and CCK-8 assays (Supplementary Figure 1) were conducted to investigate the anti-proliferative effect in PBS, FITC, stable SIO and linear SIO treated groups. […] It was worth noting that the anti-proliferative effect of SIO was in a time-dependent manner, which was significant at 48 hours (54%), and was peaked at 72 hours (70%).
Figure 6 The strong cell penetration of stable SIO in A549 or H1299 cells inhibited cell proliferation and induced cell apoptosis FITC-Annexin V and propidium iodide (PI) containing apoptosis assay on A549 or H1299 cells treated with PBS (as blank), FITC (5 μM), linear SIO (5 μM) and stable SIO (5 μM) for 72 hours. (A and D) Apoptotic cells stained with Annexin V/PI were measured by flow cytometry. (B and E) The statistic results of cell apoptosis by flow cytometry. […] Percentage cell viability of the treated cells is calculated relative to that of PBS treated cells (with arbitrarily assigned 100% viability). […]
Cell viability was measured using Cell Counting The plates were processed as described above, and the Kit-8 (CCK-8, Sigma, St. Louis, MO, USA) following the OD450 of the supernatant was measured. […]

[2] = test system: A549 cells; format: cell-based, human
Method: To quantitatively evaluate the corresponding cellular uptakes and average fluorescent intensity of linear SIO or stable SIO in human lung cancer cells, A549 cells were treated with PBS (as blank), FITC, stable SIO and linear SIO for 2 hours and then were analyzed by flow cytometry (Figure 5). […] Almost identical results were obtained from another lung cancer cell line H1299 (Figure 5D–5F). Therefore, the results were consistent with the cell fluorescent imaging analysis, which indicated stable SIO was much more appropriate to penetrate into cells.
Figure 5 Delivery efficiency of stable SIO or linear SIO in A549 or H1299 cells evaluated by flow cytometry (A and D) A549 or H1299 cells were treated with PBS (as blank), FITC (5 μM), linear SIO (5 μM) and stable SIO (5 μM) for 2 hours and the statistical count of cells were gathered by flow cytometry. […] Average fluorescence intensity presents the FITC intensity in the cells. […]
To test the delivery efficiency of stable SIO or linear SIO, A549 cells were cultured in the 6-well plates and were treated with PBS (as blank), FITC, stable FITC-SIO and linear FITC-SIO separately for […]. […] Samples were then analyzed by the FACSCalibur flow cytometer (Becton Dickinson). The cellular uptake and average fluorescent intensity were analyzed using Flowjo software.

## O=C1OC2(c3ccc(O)cc3Oc3cc(O)ccc32)c2ccc(N=C=S)cc21 [FITC]
[1]
  inhibition of cell growth (in words): no obvious inhibition
[2]
  delivery (permeability) efficiency: ratio of fluorescent cell counts to total cell counts: 5.82 ± 0.95%
